Laboratory results published in patent US10894945B2, “Methods for improving proliferation and stemness of limbal stem cells” (CATHOLIC UNIVERSITY INDUSTRY ACADEMIC COOPERATION FOUNDATION, priority 2016, dated 2021).

Assays:
human limbal explant = assay: Limbal explant outgrowth culture: outgrowth proliferation, area, cell yield, cell density; assay type: cell-based; conditions: for stained outgrowth area / cell yields: 10 μM IWP2 or 3 μM CHIR99021; for stained outgrowth area: Commassie blue R 250 staining, compared with control (FIG. 2a, 2b); for cell yields: trypan blue, hemocytometer, compared with normal control (FIG. 2c); for outgrowth proliferation rates of the explant: 10 μM IWP2 or 3 μM CHIR99021 in medium, phase contrast microscope, day 4 and 8, compared with control (FIG. 1); for Cell count, Mean: Explant culture, Table 1
Protocol: The corneal limbal tissue satisfying the above-described conditions was splitted into […] using a surgical instrument on a horizontal sterile-air-flow hood, and the conjunctival edge of each quarter was immersed shortly in 1% trypan blue (Sigma, USA) to stain conjunctival stroma, and all remnants of conjunctiva were carefully removed using conjunctival scissors. Afterward, a sclera tissue was trimmed away, and then each limbal strip was prepared after being cut to a thickness of 0.5 mm using a sharp blade. First, a 0.4-μm pore polyester membrane insert (Costar, NY) with a diameter of 25 mm was put into a 6-well plate, and pre-equilibrated overnight cultured in a supplemented hormonal epithelial medium (SHEM). The SHEM was composed of 950 ml of Dulbecco's modified minimal essential medium (DMEM)/F-12 medium in which DMEM and Ham F12 are mixed in a ratio of 1:1, 50 ml of fetal bovine serum (FBS), 5 ng of a human recombinant epidermal growth factor (EGF), 28 mg of phosphoethanolamine, lx insulin-transferrin-selenium (ITS, Gibco), and 1× penicillin-streptomycin (Gibco). Afterward, the limbal tissue cut into 8 sections with a length of 4 mm according to the method described in Example 1-1 was put on a polyester membrane to dispose an epithelial part face-up, and cultured under an air-liquid interface condition. After 72 hours of culturing, the presence of an encircling island of outgrowth cells were confirmed, and then the medium was replaced with a fresh medium that just covered a surface of the explant, every 72 hours. Here, the cells were cultured with 10 μM of the Wnt inhibitor (IWP2) or 3 μM of the GSK3 inhibitor (CHIR99021), and then experiments that will be described below were performed. To identify effects of the Wnt/β-catenin signaling on the limbal explant outgrowth cultures, cells were cultured by adding 10 μM of the Wnt inhibitor IWP2 or 3 μM of the Wnt signaling agonist CHIR99021 as a GSK3 inhibitor to a medium under the culture conditions for a human limbal explant cultures according to the methods described in Examples 1-1 and 1-2, and explant outgrowth proliferation was observed using a phase contrast microscope on day 4 and 8. […] In addition, cells were harvested by treating the limbal explant cultures with trypsin, stained with a 0.4% trypan blue solution, and cell yields were measured using a hemocytometer and then cell densities were quantitatively analyzed.

[1] = test system: limbal stem cells (LSCs) in limbal explant outgrowth cultures; assay: Flow cytometry of JC1 low side population in limbal explant outgrowth cultures; assay type: cell-based, human; conditions: for % JC1^low, Mean: Explant culture, Table 1; for JC1 exclusion cell cohort (JC1^low) / percentage in a lower left quadrant (LLQ): limbal explant culture; for JC1 exclusion cell cohort (JC1^low): 10 μM IWP2 or 3 μM CHIR99021 (FIG. 3); for percentage in a lower left quadrant (LLQ): 10 μM IWP2 or 3 μM CHIR99021, FSC/SSC, stem/precursor somatic cells (FIG. 3)
Protocol: First, a 0.4-μm pore polyester membrane insert (Costar, NY) with a diameter of 25 mm was put into a 6-well plate, and pre-equilibrated overnight cultured in a supplemented hormonal epithelial medium (SHEM). The SHEM was composed of 950 ml of Dulbecco's modified minimal essential medium (DMEM)/F-12 medium in which DMEM and Ham F12 are mixed in a ratio of 1:1, 50 ml of fetal bovine serum (FBS), 5 ng of a human recombinant epidermal growth factor (EGF), 28 mg of phosphoethanolamine, lx insulin-transferrin-selenium (ITS, Gibco), and 1× penicillin-streptomycin (Gibco). […] After 72 hours of culturing, the presence of an encircling island of outgrowth cells were confirmed, and then the medium was replaced with a fresh medium that just covered a surface of the explant, every 72 hours. Here, the cells were cultured with 10 μM of the Wnt inhibitor (IWP2) or 3 μM of the GSK3 inhibitor (CHIR99021), and then experiments that will be described below were performed. In order to determine a relative cell size and ABCG2 efflux activity, cells from limal explant outgrowth cultures were harvested by treatment with trypsin, the collected cells were seeded in 6-well plates at a cell density of 2×10^4/well, treated with 250 nM JC1 dye and incubated for 45 minutes. Afterward, the cells were detached again by trypsin treatment and diluted with FACS buffer to perform FACS analysis. JC1 is a dye binding to mitochondria in cells, efflux of the JC1 dye from cells in a side population strongly expressing ATP-binding cassette sub-family G member 2 (ABCG2) results in inhibition of mitochondria staining. Therefore, flow cytometry was performed on the cells treated with the JC1 dye using a FACS Calibur (BD Biosciences) at an emission wavelength of 531(green)/585(orange), and the side population (JC1^low) that was not stained with JC1 was measured.

[2] = test system: LSC markers p63α and ABCG2, differentiation marker Krt3; assay: Western blot of LSC markers and differentiation marker in limbal explant outgrowth cells; assay type: cell-based, human; conditions: for expression of the differentiation marker Krt3: western blot (FIG. 4); for protein expression of LSC marker ABCG2 / protein expression of LSC marker p63α: western blot, compared with control (FIG. 4)
Protocol: First, a 0.4-μm pore polyester membrane insert (Costar, NY) with a diameter of 25 mm was put into a 6-well plate, and pre-equilibrated overnight cultured in a supplemented hormonal epithelial medium (SHEM). The SHEM was composed of 950 ml of Dulbecco's modified minimal essential medium (DMEM)/F-12 medium in which DMEM and Ham F12 are mixed in a ratio of 1:1, 50 ml of fetal bovine serum (FBS), 5 ng of a human recombinant epidermal growth factor (EGF), 28 mg of phosphoethanolamine, lx insulin-transferrin-selenium (ITS, Gibco), and 1× penicillin-streptomycin (Gibco). Afterward, the limbal tissue cut into 8 sections with a length of 4 mm according to the method described in Example 1-1 was put on a polyester membrane to dispose an epithelial part face-up, and cultured under an air-liquid interface condition. After 72 hours of culturing, the presence of an encircling island of outgrowth cells were confirmed, and then the medium was replaced with a fresh medium that just covered a surface of the explant, every 72 hours. Here, the cells were cultured with 10 μM of the Wnt inhibitor (IWP2) or 3 μM of the GSK3 inhibitor (CHIR99021), and then experiments that will be described below were performed. Limbal explant outgrowth cells were washed with PBS, and lysed with a lysis buffer containing phosphatase inhibitor cocktail 2 (Sigma-Aldrich) and protease inhibitor cocktail (Roche Diagnostics). A lysate was boiled with a sample-loading buffer for 10 minutes and then centrifuged, resulting in isolation of a supernatant containing proteins in the cells, and a protein concentration was quantified using a BCA Protein Assay kit (Thermo Fisher Scientific, Rockford, Ill.). Afterward, equal amounts of protein in cell lysates were separated by 10% SDS-polyacrylamide gel electrophoresis (SDS-PAGE) under reducing conditions and electro-transferred to a PVDF membrane (Millipore, Billerica, Mass.). Afterward, The membrane was blocked with 5% skim milk in PBS containing 0.1% Tween 20, incubated at 4° C. for 18 h with primary mouse monoclonal antibodies (Abs) recognizing, β-catenin (BD Biosciences), ABCG2 (Abcam), Krt3 (Abcam) or a rabbit polyclonal antibody recognizing p63α (Abcam). After the washes, the membrane was incubated with a horseradish peroxidase-binding anti-mouse or anti-rabbit secondary antibody at room temperature for 1 hour. The membrane incubating with the secondary antibody was washed with 0.1% Tween 20-added PBS three times, treated with an ECL solution (Amersham Biosciences, Sweden) as a chemiluminescence reagent and developed, thereby analyzing an expression level of a protein to be observed. Also, to correct protein levels of the samples, a mouse monoclonal anti-β-actin primary antibody reacted with the membrane, and subsequent procedures were the same as described above. To identify effects of the Wnt/β-catenin signaling on LSC differentiation during the limbal explant culture, expression levels of the LSC markers p63α and ABCG2, and the differentiation marker Krt3 protein in the explant outgrowth cells were detected by western blot analysis according to the method described in Example 1-5.

[3] = test system: limbal explant outgrowth cells; assay: Colony forming efficiency assay of cells harvested from explant outgrowth cultures; assay type: cell-based, human; conditions: cells from treated limbal explant outgrowth; cultured up to day 14; compared with control (FIG. 5)
Protocol: First, a 0.4-μm pore polyester membrane insert (Costar, NY) with a diameter of 25 mm was put into a 6-well plate, and pre-equilibrated overnight cultured in a supplemented hormonal epithelial medium (SHEM). The SHEM was composed of 950 ml of Dulbecco's modified minimal essential medium (DMEM)/F-12 medium in which DMEM and Ham F12 are mixed in a ratio of 1:1, 50 ml of fetal bovine serum (FBS), 5 ng of a human recombinant epidermal growth factor (EGF), 28 mg of phosphoethanolamine, lx insulin-transferrin-selenium (ITS, Gibco), and 1× penicillin-streptomycin (Gibco). […] After 72 hours of culturing, the presence of an encircling island of outgrowth cells were confirmed, and then the medium was replaced with a fresh medium that just covered a surface of the explant, every 72 hours. Here, the cells were cultured with 10 μM of the Wnt inhibitor (IWP2) or 3 μM of the GSK3 inhibitor (CHIR99021), and then experiments that will be described below were performed.

[4] = test system: human limbal epithelial cells; assay: Flow cytometry of JC1 low ratio in isolated limbal epithelial cell (single cell) culture; assay type: cell-based; conditions: Table 1
Protocol: (§1) The limbal tissue divided according to the method described in Example 1-1 was treated with 2 mg/ml Dispase II (Roche, Indianapolis, Ind.) diluted with keratinocyte medium (KSFM; Invitrogen, Carlsbad, Calif.) and overnight cultured at 4° C. Afterward, a limbal epithelium layer was gently sloughed off from its stromal base under the dissecting microscope, the epithelium layer was treated with TrypLE (GIBCO, Denmark) and cultured for 10 minutes, and then triturated with a pipette to generate a single cell suspension. These cells were seeded into a 25T flask coated with human type I collagen (PureCol^R, Biomatrix, SanDiego, Calif.) to be dispensed at a density of 2×10^5 cells/flask, and cultured in Cnt50 medium (Cell-N-Tec, Bern, Switzerland) complemented with bovine pituitary extract for up to 2 weeks.
In order to determine a relative cell size and ABCG2 efflux activity, cells from limal explant outgrowth cultures were harvested by treatment with trypsin, the collected cells were seeded in 6-well plates at a cell density of 2×10^4/well, treated with 250 nM JC1 dye and incubated for 45 minutes. […] Therefore, flow cytometry was performed on the cells treated with the JC1 dye using a FACS Calibur (BD Biosciences) at an emission wavelength of 531(green)/585(orange), and the side population (JC1^low) that was not stained with JC1 was measured. […]

[5] = test system: human limbal epithelial cells; assay: Viable cell count / cell yield in isolated limbal epithelial cell (single cell) culture; assay type: cell-based; conditions: for Cell count, Mean: Epithelial cells (single cell culture), Table 1
Protocol: as §1
According to Examples 2 to 4, it was identified that, in the limbal explant culture, the Wnt/β-catenin signaling is involved in the stimulation of explant outgrowth proliferation per unit area, and sternness improvement and differentiation inhibition of LSCs. Accordingly, an experiment was conducted to confirm whether the same effects as described above would be obtained, even when limbal epithelial cells were dissociated according to the method described in Example 1-3, and cultured as single cells. To this end, the limbal explant outgrowth cells according to the method described in Example 1-2 and the cells proliferated from the limbal epithelial cells according to the method described in Example 1-3 were harvested, and each type of cells was subjected to FACS analysis to measure a JC1^low ratio.
Based on the results of Example 6-1, cells cultured by the same method as described above were recovered to measure viable cell counts, yields of the limbal epithelial cells were measured.

SMILES	cell density (human limbal explant; 10 μM IWP2, cells/mm^2, compared with control and CHIR99021 group (FIG. 2d))	stained outgrowth area (human limbal explant)	cell yields (human limbal explant)	outgrowth proliferation rates of the explant (human limbal explant)	Cell count, Mean (human limbal explant)	% JC1^low, Mean [1] [%]	JC1 exclusion cell cohort (JC1^low) [1] [%]	percentage in a lower left quadrant (LLQ) [1] [%]	expression of the differentiation marker Krt3 [2]	protein expression of LSC marker ABCG2 [2]	protein expression of LSC marker p63α [2]	colony forming efficiency (CFE) [3]	% JC1^low, Mean [4] [%]	Cell count, Mean [5]	cell yields (viable cell counts) ([5]; single cell culture of limbal tissues (FIG. 6))
Cc1ccc2nc(NC(=O)CSc3nc4c(c(=O)n3-c3ccccc3)SCC4)sc2c1 [IWP2, N-(6-Methyl-2-benzothiazolyl)-2-[(3,4,6,7-tetrahydro-4-oxo-3-phenylthieno[3,2-d]pyrimidin-2-yl)thio]-acetamide]	highest cell density	subsequently increased	no difference in cell yields	sequentially decreased	4.3 1 × 10^5	27.9	29.6±2.6	72.8±1.9	barely expressed	remarkably increased	remarkably increased	remarkably higher CFE	9.8	4.1 1 × 10^5	–
Cc1c[nH]c(-c2cnc(NCCNc3ccc(C#N)cn3)nc2-c2ccc(Cl)cc2Cl)n1 [CHIR99021]	–	smaller area	significantly decreased	sequentially decreased	0.8 1 × 10^5	6.4	10.9±1.3	50.7±10.1	increased	remarkably decreased	remarkably decreased	remarkably lower CFE	23.9	7.0 1 × 10^5	very low
